Test system: HeLa cells
Test: Confocal microscopic analysis of cellular location of DOX and 36
Assay type: cell-based
Settings: 10 µM, 3 h, 37 °C, fluorescence confocal microscopy

Structure (SMILES): COc1cccc2c1C(=O)c1c(O)c3c(c(O)c1C2=O)C[C@@](O)(C(=O)CO)C[C@@H]3O[C@H]1C[C@H](N)[C@H](O)[C@H](C)O1 [DOX, Doxorubicin]
- cellular location of DOX fluorescence, no irradiation: efficiently transported to the nucleus

Reference: paper PMC6857671 (Chemical Science, 2019)
